Four compounds from US8158558B2, “Herbicide combinations comprising specific sulfonylureas” (Bayer CropScience GmbH, priority 2001, dated 2012) can be followed below.

Where two headings read alike, the source gives them in different places.

Common to all, as to type: in vivo
Series [1] deals with Veronica hederifolia. Kind of series: Herbicidal action (outdoor trials), post-emergence, Veronica hederifolia. To be noted: visual score approx. 4-6 weeks after application, mean of 4 plots. The method, then: (§1) Herbicidal Action (Outdoor Trials)
(§2) The seeds or rhizome pieces of typical harmful plants were planted and grown under natural outdoor conditions. After the harmful plants had emerged, they were treated, as a rule at the 2- to 4-leaf stage, with various dosages of the compositions according to the invention at a water application rate of 100 to 400 I/ha (converted).
(§3) After the treatment (approx. 4-6 weeks after application), the herbidical activity of the active compounds or active compound mixtures was scored visually by comparing the treated plots with the untreated control plots. Damage and development of all above-ground parts of the plants was recorded. Scoring was done on a percentage scale (100% action=all plants dead; 50% action=50% of the plants and green plant parts dead; 0% action=no discernible action=like control plot). The score figures of in each case 4 plots were averaged.
(§4) The results are listed in the tables below, where the activity measured for the independent use of the active compounds (A) and (B) is stated in brackets and where g of AS/ha denotes grams of active substance per hectare.

For series [2], the system named is Wheat. The method, then:
as §1, §2, §3, §4

Series [3] concerns Setaria viridis. Kind of series: Herbicidal action (outdoor trials), post-emergence, Setaria viridis. To be noted: read-out: Setaria viridis % activity. The method, then: as §1, §2, §3, §4

For `CCOC(=O)/C(Cl)=C/c1cc(N2C(=O)C3=C(CCCC3)C2=O)ccc1Cl` [cinidon-ethyl (B7), ethyl (Z)-2-chloro-3-[2-chloro-5-(1,2-cyclohex-1-enedicarboximido)phenyl]acrylate], in series [1] (25 g of AS/ha), the “Veronica hederifolia % damage” value came out at 35%. Further, the “Veronica hederifolia % activity” value in series [1] (50 g of AS/ha) is 25%. In addition, the Wheat % activity in series [2] (25 g of AS/ha, outdoor, visual score approx. 4-6 weeks after application, mean of 4 plots) worked out at 0%. The compound further had a Wheat % damage in series [2] (50 g of AS/ha, outdoor, visual score approx. 4-6 weeks after application, mean of 4 plots) of 5%.
As to `COc1ncc(F)c2nc(S(=O)(=O)Nc3c(F)cccc3F)nn12` [florasulam (B3), 2′,6′,8′-trifluoro-5-methoxy[1,2,4]triazolo[1,5-c]pyrimidine-2-sulfanilide], the “Veronica hederifolia % damage” value in series [1] (4 g of AS/ha) was 60%. Moreover, the Wheat % activity in series [2] (4 g of AS/ha, outdoor, visual score approx. 4-6 weeks after application, mean of 4 plots) turned out to be 0%.
Consider `COc1nn(C(=O)NS(=O)(=O)c2ccccc2OC(F)(F)F)c(=O)n1C.[Na]` [flucarbazone (B1), 4,5-dihydro-3-methoxy-4-methyl-5-oxo-N-(2-trifluoromethoxyphenylsulfonyl)-1H-1,2,4-triazole-1-carboxamide sodium salt], for which the inhibition at 10 g/ha in series [3] was found to be 40%. The Wheat % damage in series [2] (10 g of AS/ha, outdoor, visual score approx. 4-6 weeks after application, mean of 4 plots) was found to be 5%.
As for `O=C(Nc1ccc(F)cc1)c1cccc(Oc2cccc(C(F)(F)F)c2)n1` [picolinafen (B6), 4′-fluoro-6-[(α,α,α-trifluoro-m-tolyl)oxy]picolinanilide], the “Veronica hederifolia % damage” value in series [1] (5 g of AS/ha) was 55%. In addition, in series [1] (Veronica hederifolia, 30 g of AS/ha), the inhibition at 30 g/ha came out at 65%. In series [2] (in vivo), this compound displayed a Wheat % activity of 0% and a Wheat % damage of 0%.
